From patent US10472347B2, “Aminopyrazine compounds with A2A antagonist properties” (Merck Sharp & Dohme Corp., priority 2014, dated 2019)

Biological target: T1, human A2a receptor (Homo sapiens, UniProt P29274)
T1 construct: purchased Perkin-Elmer RBHA2AM400UA; host or cells: HEK293 cells (membranes)
Experiment: A2a competition binding assay, Scintillation Proximity technology
Conditions: membranes from HEK293 cells expressing human A2a receptor; Ki by Cheng-Prusoff equation
Outline: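 Membranes from HEK293 cells expressing human A2a, adenosine deaminase-treated, incubated 1 h at room temperature with compound (3000 to 0.15 nM) and 0.5 nM tritiated pyrazolotriazolopyrimidine radioligand on WGA SPA beads in Ca/Mg-free PBS + 10 mM MgCl2. Non-specific binding with 1 μM CGS15943; Ki by Cheng-Prusoff.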

T1 sequence (P29274 whole entry): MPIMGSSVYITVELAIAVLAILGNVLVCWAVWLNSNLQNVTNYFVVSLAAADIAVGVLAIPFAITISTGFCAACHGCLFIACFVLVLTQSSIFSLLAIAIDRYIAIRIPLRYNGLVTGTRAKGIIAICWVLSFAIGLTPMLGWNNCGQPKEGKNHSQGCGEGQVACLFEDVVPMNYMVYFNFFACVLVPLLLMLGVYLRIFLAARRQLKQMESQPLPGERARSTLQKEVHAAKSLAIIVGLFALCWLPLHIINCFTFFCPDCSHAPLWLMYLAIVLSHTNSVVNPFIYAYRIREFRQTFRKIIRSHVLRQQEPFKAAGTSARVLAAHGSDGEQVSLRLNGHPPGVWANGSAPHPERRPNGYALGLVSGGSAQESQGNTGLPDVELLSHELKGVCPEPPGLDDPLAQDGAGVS

Structure (SMILES)	Ki
Nc1nc(-n2nccn2)c(Cl)nc1C(=O)NCc1cc2ccccc2cn1 [Ex-307, 3-amino-6-chloro-N-(isoquinolin-3-ylmethyl)-5-(2H-1,2,3-triazol-2-yl)pyrazine-2-carboxamide]	21.6 nM
Nc1nc(-n2nccn2)c(Cl)nc1C(=O)NCc1cc2ccccc2[nH]1 [Ex-308, 3-amino-6-chloro-N-(1H-indol-2-ylmethyl)-5-(2H-1,2,3-triazol-2-yl)pyrazine-2-carboxamide]	34.5 nM
Nc1nc(-n2nccn2)c(Cl)nc1C(=O)NCc1cccc2ncccc12 [Ex-309, 3-amino-6-chloro-N-(quinolin-5-ylmethyl)-5-(2H-1,2,3-triazol-2-yl)pyrazine-2-carboxamide]	180 nM
Nc1nc(-n2nccn2)c(Cl)nc1C(=O)NCc1cn2ccsc2n1 [Ex-310, 3-amino-6-chloro-N-(imidazo[2,1-b][1,3]thiazol-6-ylmethyl)-5-(2H-1,2,3-triazol-2-yl)pyrazine-2-carboxamide]	15.7 nM
Nc1nc(-n2nccn2)c(Cl)nc1C(=O)NCCc1cnccn1 [Ex-311, 3-amino-6-chloro-N-(2-pyrazin-2-ylethyl)-5-(2H-1,2,3-triazol-2-yl)pyrazine-2-carboxamide]	1160 nM
Nc1nc(-n2nccn2)c(Cl)nc1C(=O)N[C@@H](CO)c1ccccc1 [Ex-312, 3-amino-6-chloro-N-[(1R)-2-hydroxy-1-phenylethyl]-5-(2H-1,2,3-triazol-2-yl)pyrazine-2-carboxamide]	607 nM
Nc1nc(-n2nccn2)c(Cl)nc1C(=O)N[C@H](CO)c1ccccc1 [Ex-313, 3-amino-6-chloro-N-[(1S)-2-hydroxy-1-phenylethyl]-5-(2H-1,2,3-triazol-2-yl)pyrazine-2-carboxamide]	22.8 nM
Nc1nc(-n2nccn2)c(Cl)nc1C(=O)NCc1cccc2c1C(=O)NC2 [Ex-314, 3-amino-6-chloro-N-[(3-oxo-2,3-dihydro-1H-isoindol-4-yl)methyl]-5-(2H-1,2,3-triazol-2-yl)pyrazine-2-carboxamide]	3.7 nM
Nc1nc(-n2nccn2)c(Cl)nc1C(=O)NCCOc1ccccc1 [Ex-315, 3-amino-6-chloro-N-(2-phenoxyethyl)-5-(2H-1,2,3-triazol-2-yl)pyrazine-2-carboxamide]	195 nM
Nc1nc(-n2nccn2)c(Cl)nc1C(=O)N[C@@H]1C[C@@]1(F)c1ccccc1 [Ex-316, 3-amino-6-chloro-N-[(1R,2R)-2-fluoro-2-phenylcyclopropyl]-5-(2H-1,2,3-triazol-2-yl)pyrazine-2-carboxamide]	66.9 nM
Nc1nc(-n2nccn2)c(Cl)nc1C(=O)N[C@H]1C[C@@]1(F)c1ccccc1 [Ex-317, 3-amino-6-chloro-N-[(1S,2R)-2-fluoro-2-phenylcyclopropyl]-5-(2H-1,2,3-triazol-2-yl)pyrazine-2-carboxamide]	2200 nM
COC(=O)[C@@H](CO)NC(=O)c1nc(Cl)c(-n2nccn2)nc1N [Ex-318, methyl N-{[3-amino-6-chloro-5-(2H-1,2,3-triazol-2-yl)pyrazin-2-yl]carbonyl}-D-serinate]	317 nM
Nc1nc(-n2nccn2)c(Cl)nc1C(=O)NCC1CCCc2cccnc21 (centres unmarked) [Ex-319, 3-amino-6-chloro-N-(5,6,7,8-tetrahydroquinolin-8-ylmethyl)-5-(2H-1,2,3-triazol-2-yl)pyrazine-2-carboxamide]	77.9 nM
Nc1nc(-n2nccn2)c(Cl)nc1C(=O)N[C@H](CO)Cc1ccccc1 [Ex-320, 3-amino-N-[(1S)-1-benzyl-2-hydroxyethyl]-6-chloro-5-(2H-1,2,3-triazol-2-yl)pyrazine-2-carboxamide]	149 nM
Nc1nc(-n2nccn2)c(Cl)nc1C(=O)NCc1ncc[nH]1 [Ex-321, 3-amino-6-chloro-N-(1H-imidazol-2-ylmethyl)-5-(2H-1,2,3-triazol-2-yl)pyrazine-2-carboxamide]	70.2 nM
CN1CCC(NC(=O)c2nc(Cl)c(-n3nccn3)nc2N)c2ccccc21 (centres unmarked) [Ex-322, 3-amino-6-chloro-N-(1-methyl-1,2,3,4-tetrahydroquinolin-4-yl)-5-(2H-1,2,3-triazol-2-yl)pyrazine-2-carboxamide]	61.9 nM
COC(=O)[C@@H](NC(=O)c1nc(Cl)c(-n2nccn2)nc1N)c1ccccc1 [Ex-323, methyl (2S)-({[3-amino-6-chloro-5-(2H-1,2,3-triazol-2-yl)pyrazin-2-yl]carbonyl}amino) (phenyl)ethanoate]	65.3 nM
Nc1nc(-n2nccn2)c(Cl)nc1C(=O)N[C@H](CO)c1ccccn1 [Ex-324, 3-amino-6-chloro-N-[(1S)-2-hydroxy-1-pyridin-2-ylethyl]-5-(2H-1,2,3-triazol-2-yl)pyrazine-2-carboxamide]	54 nM
Nc1nc(-n2nccn2)c(Cl)nc1C(=O)N[C@H](CO)Cc1c[nH]c2ccccc12 [Ex-325, 3-amino-6-chloro-N-[(1S)-2-hydroxy-1-(1H-indol-3-ylmethyl)ethyl]-5-(2H-1,2,3-triazol-2-yl)pyrazine-2-carboxamide]	337 nM
Cc1cccc(CNC(=O)c2nc(Cl)c(-n3nccn3)nc2N)n1 [Ex-326, 3-amino-6-chloro-N-[(6-methylpyridin-2-yl)methyl]-5-(2H-1,2,3-triazol-2-yl)pyrazine-2-carboxamide]	6.1 nM
Nc1nc(-n2cncn2)c(Cl)nc1C(=O)NCc1ccccc1C(F)(F)F [Ex-327, 3-amino-6-chloro-5-(1H-1,2,4-triazol-1-yl)-N-[2-(trifluoromethyl)benzyl] pyrazine-2-carboxamide]	55.7 nM
Nc1nc(-n2cncn2)c(Cl)nc1C(=O)NCc1ccc(F)cc1F [Ex-328, 3-amino-6-chloro-N-(2,4-difluorobenzyl)-5-(1H-1,2,4-triazol-1-yl)pyrazine-2-carboxamide]	627 nM
Nc1nc(-n2cccn2)c(Cl)nc1C(=O)NCc1ccccc1C(F)(F)F [Ex-329, 3-amino-6-chloro-5-(1H-pyrazol-1-yl)-N-[2-(trifluoromethyl)benzyl] pyrazine-2-carboxamide]	8.6 nM
Nc1nc(-n2cccn2)c(Cl)nc1C(=O)NCc1ccc(F)cc1 [Ex-330, 3-amino-6-chloro-N-(4-fluorobenzyl)-5-(1H-pyrazol-1-yl)pyrazine-2-carboxamide]	61.5 nM
Nc1nc(-n2cccn2)c(Cl)nc1C(=O)NCc1ccc(F)cc1F [Ex-331, 3-amino-6-chloro-N-(2,4-difluorobenzyl)-5-(1H-pyrazol-1-yl)pyrazine-2-carboxamide]	75.4 nM
Nc1nc(-n2cccn2)c(Cl)nc1C(=O)NCc1cccc2cccnc12 [Ex-332, 3-amino-6-chloro-5-(1H-pyrazol-1-yl)-N-(quinolin-8-ylmethyl)pyrazine-2-carboxamide]	4.1 nM
Nc1nc(-n2cccn2)c(Cl)nc1C(=O)N[C@@H]1CCc2ccccc21 [Ex-333, 3-amino-6-chloro-N-[(1R)-2,3-dihydro-1H-inden-1-yl]-5-(1H-pyrazol-1-yl)pyrazine-2-carboxamide]	57.9 nM
Cc1cccnc1CNC(=O)c1nc(Cl)c(-n2cccn2)nc1N [Ex-334, 3-amino-6-chloro-N-[(3-methylpyridin-2-yl)methyl]-5-(1H-pyrazol-1-yl)pyrazine-2-carboxamide]	13.7 nM
Cc1cnn(-c2nc(N)c(C(=O)NCc3ccccc3C(F)(F)F)nc2Cl)c1 [Ex-335, 3-amino-6-chloro-5-(4-methyl-1H-pyrazol-1-yl)-N-[2-(trifluoromethyl)benzyl] pyrazine-2-carboxamide]	114 nM
